Patent US20240408158A1 (LINYI UNIVERSITY, priority 2023, published 2024)

Tests used:
[1] = system: mice with hyperuricemia induced by fructose and yeast diet; test: Model of hyperuricemia induced by fructose and yeast diet, serum uric acid; assay type: in vivo
Source text: 1. Experimental animal: […] At the Experimental Animal Center of Qingdao University, all mice were placed in pathogen free facilities, maintained at appropriate temperature and relative humidity, followed by a 12-hour light and dark cycle, they freely ate and drank and clean bedding was replaced daily. 3. Method of modeling: 36 Balb/c male mice were divided into 6 groups, with 6 mice in each group. They were: […] Dissolving allopurinol and Antarctic red pigment in double distilled water and mixing well. […] Weights of each group of mice from day 0 onwards were recorded. 5. Uric acid testing: At Sam on days 14, 21, 28, and 35, mice were fasted for 12 hours and blood samples from the posterior orbital venous plexus of the mice were collected for uric acid testing. After the blood collection was completed, the blood was left at room temperature for one hour and centrifuged at a speed of 3000 rpm for 5 minutes to obtain a light-yellow upper serum.

mice with hyperuricemia = test: Model of hyperuricemia induced by high purine (yeast extract plus oteracil potassium); assay type: in vivo; details: allopurinol treatment group 20 mg/kg gavage, 7 days, 5 mice per group
Source text: 1. Experimental animal: Balb/c male mice, 6-8 weeks old, with weigh of 16-18 g were purchased from Sperford (Beijing) Biotechnology Co., Ltd. At the Experimental Animal Center of Qingdao University, all mice were placed in pathogen free facilities, maintained at appropriate temperature and relative humidity, followed by a 12-hour light and dark cycle, they freely ate and drank, and clean bedding was replaced daily.
3. […] From Day 5 to Day 7, except for the blank control group, the other four groups were given 0.1 ml (6 mg/animal) of oteracil potassium by intraperitoneal injection.

[2] = system: mouse bone marrow red cells; details: positive control 40 mg/kg BW; P<0.01
Method: 3.3 Mammalian red blood cell micronucleus test: 50 healthy, mature mice with weight of 25-30 g were selected, with half male and half female. The mice were randomly divided into 5 groups, 10 mice in each group, and half male and half female in each group. The experiment was conducted with three dose groups of 1.25, 2.5, and 5.0 g/kgBW Samples of 2.5, 5.0, and 10.0 g were weighed and prepared into 40 mL sample solutions using distilled water as the solvent. […] Mice were given test substance by oral gavage at a volume of 20 mL/kgBW, gavaged twice with an interval of 24 hours. Six hours after the second gavage, the animals were euthanized due to cervical dislocation. Sternal bone marrow was taken and made into bone marrow slices, fixed with methanol, and stained with Giemsa.
2000 polychromatic erythrocytes in each animal were observed and a frequency of micronucleus polychromatic erythrocytes (namely, micronucleus frequency) was counted, expressed in thousandths.

[3] = after 14 days, Allopurinol group 20 mg/kg

Structure (SMILES)	uric acid level ([1]; 21st day, Allopurinol group 20 mg/kg) [µmol/L]	uric acid level ([1]; 28th day, Allopurinol group 20 mg/kg) [µmol/L]	uric acid level ([1]; 35th day, Allopurinol group 20 mg/kg) [µmol/L]	increase of uric acid level compared with the control group [1, 3] [%]	uric acid level lower than in the High uric acid model group [1, 3] [%]	uric acid level ([1]; after 14 days, Allopurinol group 20 mg/kg gavage once a day) [µmol/L]	deaths (mice with hyperuricemia)	micronucleus frequency compared with negative control group [2]
Oc1ncnc2[nH]ncc12 [allopurinol]	247.2 ± 48.98	264.9 ± 54.87	215.8 ± 37.132	24.67	30.39	191.5 ± 21.95	no deaths	–
O=P1(N(CCCl)CCCl)NCCCO1 (centres unmarked) [cyclophosphamide]	–	–	–	–	–	–	–	significantly higher
